Reference: patent US20010056060A1, “Treatment of osteoporsis with EP2/EP4 receptor selective agonists” (priority 2000, published 2001)
pIC50: −log10 of the molar value.

Key:
[1] = biological target: T1, EP2 receptor (Homo sapiens, UniProt P43116); experiment: Assay for binding to prostaglandin E2 receptors (3H-PGE2 displacement), EP2
T1 construct: The full length EP2 receptor is made as disclosed in Regan et al; expressed in transfected cells; membranes
Description: (§1) All operations are performed at 4° C. […] The cells are lysed by sonification with a Branson Sonifier (Model #250, Branson Ultrasonics Corporation, Danbury, Conn.) in 2 fifteen second bursts. Unlysed cells and debris are removed by centrifugation at 100× g for 10 min. Membranes are then harvested by centrifugation at 45,000× g for 30 minutes. Pelleted membranes are resuspended to 3-10 mg protein per ml, protein concentration being determined of the method of Bradford [Bradford, M., Anal. Biochem., 72, 248 (1976)]. Resuspended membranes are then stored frozen at −80° C. until use.
(§2) Frozen membranes prepared as above are thawed and diluted to 1 mg protein per ml in Buffer A above. […] The membranes are then recovered by filtration through type GF/C glass fiber filters (#1205-401, Wallac, Gaithersburg, Md.) using a Tomtec harvester (Model Mach II/96, Tomtec, Orange, Conn.). […] Each sample is then washed 3 times with 3 ml of [50 mM Tris-HCl (pH 7.4), 10 mM MgCl2, 1 mM EDTA]. The filters are then dried by heating in a microwave oven. To determine the amount of ^3H—prostaglandin bound to the membranes, the dried filters are placed into plastic bags with scintillation fluid and counted in a LKB 1205 Betaplate reader (Wallac, Gaithersburg, Md.).
(§3) The full length EP1 receptor is made as disclosed in Funk et al., Journal of Biological Chemistry, 1993, 268, 26767-26772. […]

[2] = biological target: T2, EP4 receptor (Homo sapiens, UniProt P35408); experiment: Assay for binding to prostaglandin E2 receptors (3H-PGE2 displacement), EP4
T2 construct: The full length EP4 receptor is made as disclosed in Bastien; expressed in transfected cells; membranes
T2 sequence (P35408 whole entry): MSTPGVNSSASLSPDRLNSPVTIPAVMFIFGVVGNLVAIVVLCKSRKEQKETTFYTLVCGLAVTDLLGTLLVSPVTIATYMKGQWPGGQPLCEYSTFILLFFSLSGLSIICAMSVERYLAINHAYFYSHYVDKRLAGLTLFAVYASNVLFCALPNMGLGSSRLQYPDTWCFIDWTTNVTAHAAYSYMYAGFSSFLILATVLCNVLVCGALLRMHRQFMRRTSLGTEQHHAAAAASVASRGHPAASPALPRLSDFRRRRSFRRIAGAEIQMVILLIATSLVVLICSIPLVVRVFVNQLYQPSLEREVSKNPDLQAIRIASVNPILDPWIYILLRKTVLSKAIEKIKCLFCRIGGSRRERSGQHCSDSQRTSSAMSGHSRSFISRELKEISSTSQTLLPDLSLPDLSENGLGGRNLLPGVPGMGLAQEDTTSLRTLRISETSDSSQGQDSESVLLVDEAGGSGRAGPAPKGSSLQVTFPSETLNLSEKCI
Description: as §1, §2, §3

[3] = biological target: T3, EP1 receptor (Homo sapiens, UniProt P34995); experiment: Assay for binding to prostaglandin E2 receptors (3H-PGE2 displacement), EP1
T3 construct: The full length EP1 receptor is made as disclosed in Funk et al; expressed in transfected cells; membranes
T3 sequence (P34995 1-402): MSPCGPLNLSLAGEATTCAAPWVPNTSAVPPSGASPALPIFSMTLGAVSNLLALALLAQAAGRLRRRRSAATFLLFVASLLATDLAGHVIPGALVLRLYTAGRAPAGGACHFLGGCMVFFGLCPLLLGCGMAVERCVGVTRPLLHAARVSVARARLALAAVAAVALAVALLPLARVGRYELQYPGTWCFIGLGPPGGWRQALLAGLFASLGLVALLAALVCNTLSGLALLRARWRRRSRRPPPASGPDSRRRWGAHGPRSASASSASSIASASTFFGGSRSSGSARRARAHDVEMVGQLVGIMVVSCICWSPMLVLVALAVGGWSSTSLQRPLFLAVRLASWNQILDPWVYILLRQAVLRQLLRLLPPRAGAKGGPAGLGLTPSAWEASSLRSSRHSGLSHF
Description: (§4) All operations are performed at 4° C. […] Louis, Mo.), 1 uM pepstatin A peptide, (Sigma, St. Louis, Mo.), 10 uM elastatinal peptide, (Sigma, St. Louis, Mo.), 100 uM antipain peptide, (Sigma, St. Louis, Mo.)]. The cells are lysed by sonification with a Branson Sonifier (Model #250, Branson Ultrasonics Corporation, Danbury, Conn.) in 2 fifteen second bursts. Unlysed cells and debris are removed by centrifugation at 100× g for 10 min. Membranes are then harvested by centrifugation at 45,000× g for 30 minutes. Pelleted membranes are resuspended to 3-10 mg protein per ml, protein concentration being determined of the method of Bradford [Bradford, M., Anal. Biochem., 72, 248 (1976)]. Resuspended membranes are then stored frozen at -80° C. until use. Frozen membranes prepared as above are thawed and diluted to 1 mg protein per ml in Buffer A above. One volume of membrane preparation is combined with 0.05 volume test compound or buffer and one volume of 3 nM ^3H-prostaglandin E2 (#TRK 431, Amersham, Arlington Heights, Ill.) in Buffer A. The mixture (205 μL total volume) is incubated for 1 hour at 25° C. […] To determine the amount of ^3H-prostaglandin bound to the membranes, the dried filters are placed into plastic bags with scintillation fluid and counted in a LKB 1205 Betaplate reader (Wallac, Gaithersburg, Md.). […]

[4] = biological target: T4, EP3 receptor (Homo sapiens, UniProt P43115); experiment: Assay for binding to prostaglandin E2 receptors (3H-PGE2 displacement), EP3
T4 construct: The full length EP3 receptor is made as disclosed in Regan et al; expressed in transfected cells; membranes
T4 sequence (P43115 1-390): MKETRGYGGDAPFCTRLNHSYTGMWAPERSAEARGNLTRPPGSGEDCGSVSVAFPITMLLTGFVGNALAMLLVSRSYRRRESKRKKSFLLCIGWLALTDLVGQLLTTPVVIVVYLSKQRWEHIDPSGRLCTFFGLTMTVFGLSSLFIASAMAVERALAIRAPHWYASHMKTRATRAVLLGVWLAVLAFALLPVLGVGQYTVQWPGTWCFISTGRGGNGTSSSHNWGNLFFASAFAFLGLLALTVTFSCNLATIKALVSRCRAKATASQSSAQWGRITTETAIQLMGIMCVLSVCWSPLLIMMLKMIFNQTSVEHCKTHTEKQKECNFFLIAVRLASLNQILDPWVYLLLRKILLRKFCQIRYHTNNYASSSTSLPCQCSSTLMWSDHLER
Description: as §4

[5] = biological target: T5, DP receptor (Homo sapiens, UniProt Q13258); experiment: DP receptor binding
T5 sequence (Q13258 1-359): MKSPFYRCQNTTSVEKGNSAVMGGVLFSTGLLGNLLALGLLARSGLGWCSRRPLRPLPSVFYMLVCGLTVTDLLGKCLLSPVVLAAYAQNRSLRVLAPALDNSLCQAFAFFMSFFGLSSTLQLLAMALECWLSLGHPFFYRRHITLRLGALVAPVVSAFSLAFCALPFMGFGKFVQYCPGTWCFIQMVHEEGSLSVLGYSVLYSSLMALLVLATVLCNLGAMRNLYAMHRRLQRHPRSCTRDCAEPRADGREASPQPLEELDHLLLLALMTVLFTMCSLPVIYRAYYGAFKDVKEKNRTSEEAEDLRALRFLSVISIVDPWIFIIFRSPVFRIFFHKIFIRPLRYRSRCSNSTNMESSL

[6] = biological target: IP receptor (Homo sapiens, UniProt P43119); experiment: IP receptor binding
IP receptor, sequence (P43119 whole entry): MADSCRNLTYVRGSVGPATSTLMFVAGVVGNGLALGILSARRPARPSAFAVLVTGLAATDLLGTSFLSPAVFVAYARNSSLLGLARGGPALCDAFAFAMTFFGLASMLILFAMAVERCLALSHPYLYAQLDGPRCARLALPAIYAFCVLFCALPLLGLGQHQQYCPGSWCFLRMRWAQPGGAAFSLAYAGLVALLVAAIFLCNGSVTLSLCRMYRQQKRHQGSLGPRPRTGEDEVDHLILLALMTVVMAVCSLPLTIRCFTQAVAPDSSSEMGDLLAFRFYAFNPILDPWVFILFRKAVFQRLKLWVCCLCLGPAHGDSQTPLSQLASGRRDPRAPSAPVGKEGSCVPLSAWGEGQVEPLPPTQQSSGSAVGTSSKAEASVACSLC

[7] = biological target: FP receptor (Homo sapiens, UniProt P43088); experiment: FP receptor binding
FP receptor, sequence (P43088 whole entry): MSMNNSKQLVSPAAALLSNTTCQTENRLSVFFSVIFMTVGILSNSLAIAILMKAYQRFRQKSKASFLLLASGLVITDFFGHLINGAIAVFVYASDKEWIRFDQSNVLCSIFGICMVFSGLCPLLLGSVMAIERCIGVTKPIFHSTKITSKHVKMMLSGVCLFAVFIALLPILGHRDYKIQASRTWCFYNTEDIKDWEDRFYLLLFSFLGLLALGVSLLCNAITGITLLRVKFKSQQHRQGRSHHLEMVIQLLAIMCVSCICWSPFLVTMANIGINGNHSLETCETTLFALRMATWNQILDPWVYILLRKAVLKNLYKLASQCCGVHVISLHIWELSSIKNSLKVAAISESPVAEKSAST

[8] = test system: osteopenic, OVX rats; experiment: Example One: skeletal effects in osteopenic OVX rats, distal femoral metaphyseal BMC/BMD by DXA; format: in vivo, Sprague-Dawley female rats; conditions: 10 mg/kg/day subcutaneous injection for 4 weeks
Description: Prostaglandin E2 (PGE2) restores bone mass by stimulating both bone formation and bone resorption but in favor of bone formation in ovariectomized (OVX) rat skeleton.
Sprague-Dawley female rats were sham-operated (n=20) or OVX (n=50) at 3 months of age. Five weeks post-surgery, OVX rats were treated (subcutaneous injection) with either vehicle or 3-(3-hydroxy-4-phenyl-butyl)-2-(6-(1 H—tetrazol-5-yl)-hexyl)-cyclopentanone at 10 mg/kg/day for 4 weeks. Distal femoral metaphyseal bone mineral content (BMC) and bone mineral density (BMD) were determined by dual energy x-ray absorptiometry (Hologic QDR-1000/W, Hologic Inc., Waltham, Mass.) according to the methods described by Ke et al., (Droloxifene, a New Estrogen Antagonist/Agonist, Prevents Bone Loss in Ovariectomized Rats, Endocrinology, 136:2435-2441; 1995).

T1 sequence (P43116 whole entry): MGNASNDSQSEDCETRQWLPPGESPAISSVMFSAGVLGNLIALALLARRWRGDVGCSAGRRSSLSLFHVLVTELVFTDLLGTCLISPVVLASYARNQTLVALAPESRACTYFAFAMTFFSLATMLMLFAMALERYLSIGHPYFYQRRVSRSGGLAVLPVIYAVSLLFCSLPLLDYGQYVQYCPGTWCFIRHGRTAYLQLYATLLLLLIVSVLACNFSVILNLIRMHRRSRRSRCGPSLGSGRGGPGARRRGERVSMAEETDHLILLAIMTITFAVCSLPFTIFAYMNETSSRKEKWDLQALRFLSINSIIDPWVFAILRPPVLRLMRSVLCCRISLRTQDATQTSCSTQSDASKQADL

pIC50 [1] | pIC50 [2] | pIC50 [3] | pIC50 [4] | pIC50 [5] | pIC50 [6] | pIC50 [7] | SMILES | restoration of bone mass to the OVX, osteopenic rat skeleton [8] | increase in distal femoral metaphyseal BMC as compared with OVX controls ([8]; started 5 weeks post-OVX) | increase in distal femoral metaphyseal BMC as compared with pre-treatment OVX controls ([8]; started 5 weeks post-OVX) | increase in distal femoral metaphyseal BMD as compared with OVX controls ([8]; started 5 weeks post-OVX) | increase in distal femoral metaphyseal BMD as compared with pre-treatment OVX controls ([8]; started 5 weeks post-OVX)
7.25 | 7.15 | < 5.49 | < 5.49 | < 5.49 | < 5.49 | < 5.49 | O=C1CCC(CCC(O)Cc2ccccc2)C1CCCCCCc1nnn[nH]1 (centres unmarked) [3-(3-hydroxy-4-phenyl-butyl)-2-(6-(1 H—tetrazol-5-yl)-hexyl)-cyclopentanone] | completely restored the bone mass | +42% | +23% | +28% | +17%
– | 7.44 | – | – | – | – | – | O=C(O)CCCCCCN1C(=O)CCC1CCC(O)Cc1ccccc1 (centres unmarked) [7-(2-(3-hydroxy-4-phenyl-butyl)-5-oxo-pyrrolidin-1-yl)-heptanoic acid] | – | – | – | – | –
7.77 | – | – | – | – | – | – | CS(=O)(=O)N(CCCCCCC(=O)O)CCOc1cc(Cl)cc(Cl)c1 [7-(2-(3,5-dichloro-phenoxy)-ethyl)-methanesulfonyl-amino)-heptanoic acid] | – | – | – | – | –
